Source: patent US20120323002A1, “IMIDAZOPYRIDAZINE COMPOUNDS” (AJINOMOTO CO., INC., priority 2009, published 2012)

Columns and labels:
Type in all cases: cell-based, mouse (female Balb/c)
[1] = tested on: IL-12p70 (IL-12p35/p40 complex); experiment: Cytokine inhibiting action using mouse whole blood: IL-12p70 production (ELISA); conditions: mouse whole blood (EDTA), 200 ng/mL mouse interferon-γ + 1.25% (v/v) SAC, incubated overnight; 50% production inhibition concentration
Description: The blood (EDTA addition) was collected from a mouse (female Balb/c) and used for evaluation. 200 ng/mL of mouse interferon-γ, a 1.25% (v/v) suspension of killed Staphylococcus aureus Cowan I strain (SAC) and a compound of the present invention were added to a cell culture medium, diluted to become a quantity equal to the blood and incubated overnight.

[2] = tested on: IL-12p70 (IL-12p35/p40 complex); experiment: Cytokine inhibiting action using mouse peritoneal macrophages: IL-12p70 production (ELISA); conditions: Peritoneal macrophage, 100 ng/mL mouse interferon-γ + 0.05% (v/v) SAC, incubated overnight, 50% production inhibition concentration
Description: (§1) 1 mL of a 3% (w/v) thioglycolate solution was intraperitoneally administered to a mouse (female Balb/c). 5 or 6 days later, the peritoneal cells of the mouse were collected, and the adherent cells were used for evaluation. 100 ng/mL of mouse interferon-γ, a 0.05% (v/v) suspension of killed Staphylococcus aureus Cowan I strain (SAC) and a compound of the present invention were added thereto and incubated overnight. After the incubation, the survival rate was measured, and each of IL-12p70 (IL-12p35/p40 complex) and TNF-α was quantified by ELISA using the collected culture supernatant to calculate the 50% production inhibition concentration (IC50) (refer to Table 1; meanwhile, the blanks in the table indicate unmeasured).

TNF-α = experiment: Cytokine inhibiting action using mouse peritoneal macrophages: TNF-α production (ELISA); conditions: Peritoneal macrophage, 100 ng/mL mouse interferon-γ + 0.05% (v/v) SAC, incubated overnight, 50% production inhibition concentration
Description: as §1

Which IC50 [1] does the source give for `C(=N\Nc1cc(N2CCOCC2)c2nc(-c3ccncc3)cn2n1)/c1csc2ccccc12` [Compound 11, N-benzo[b]thiophen-3-yl-methylidene-N′-(8-morpholin-4-yl-2-pyridin-4-yl-imidazo[1,2-b]pyridazin-6-yl)-hydrazine] here?
Its IC50 is 1000 nM.

What about the IC50 [2] of the same compound?
Its IC50 is 30 nM.

`Cc1cccc(/C=N/Nc2cc(N3CCOCC3)c3nc(-c4ccc(-c5ccccn5)s4)cn3n2)c1` [Compound 8, N-(3-methyl-benzylidene)-N′-[8-morpholin-4-yl-2-(5-pyridin-2-yl-thiophen-2-yl)-imidazo[1,2-b]pyridazin-6-yl]-hydrazine] was tested. Which IC50 [1] did it give?
Its IC50 is 1500 nM.

What about the IC50 [2] of the same compound?
The IC50 was 15 nM.

How did the IC50 [1] turn out when `C(=N\Nc1cc(N2CCOCC2)c2nc(-c3ccncc3)cn2n1)/c1cc2ccccc2[nH]1` [Compound 21, N-(1H-indol-2-ylmethylene)-N-(8-morpholin-4-yl-2-pyridin-4-yl-imidazo[1,2-b]pyridazin-6-yl)-hydrazine] was run?
Its IC50 is 340 nM.

What about the IC50 [2] of the same compound?
The IC50 was 16 nM.

For `CN1CCc2ccc(/C=N/Nc3cc(N4CCOCC4)c4nc(-c5ccncc5)cn4n3)cc21` [Compound 27, N-(N-methylindoline-6-ylmethylene)-N-(8-morpholin-4-yl-2-pyridin-4-yl-imidazo[1,2-b]pyridazin-6-yl)-hydrazine], which IC50 [1] is on record?
The IC50 was 1200 nM.

And the IC50 [2]?
Its IC50 is 44 nM.

`C(=N\Nc1cc(N2CCOCC2)c2nc(-c3ccncc3)cn2n1)/c1coc2ccccc12` [Compound 9, N-benzofuran-3-yl-methylidene-N′-(8-morpholin-4-yl-2-pyridin-4-yl-imidazo[1,2-b]pyridazin-6-v)-hydrazine] was tested. Which IC50 [1] did it give?
Its IC50 is 890 nM.

And the IC50 [2]?
Its IC50 is 76 nM.

`Cc1[nH]c2ccc(/C=N/Nc3cc(N4CCOCC4)c4nc(-c5ccncc5)cn4n3)cc2c1C` [Compound 12, N-(2,3-dimethyl-1H-indol-5-yl-methylidene)-N′-(8-morpholin-4-yl-2-pyridin-4-yl-imidazo[1,2-b]pyridazin-6-yl)-hydrazine] was tested. Which IC50 [2] did it give?
Its IC50 is 140 nM.

`Cc1ccc(-c2cn3nc(N/N=C/c4c[nH]c5ccccc45)cc(N4CCOCC4)c3n2)cn1` [Compound 30, N-(1H-indol-3-yl-methylene)-N′-[2-(6-methyl-pyridin-3-yl)-8-morpholin-4-yl-imidazo[1,2-b]pyridazin-6-yl]-hydrazine] was tested. Which IC50 [1] did it give?
The IC50 was 1900 nM.

And the IC50 [2]?
The IC50 was 5.2 nM.

`C(=N\Nc1cc(N2CCOCC2)c2nc(-c3ccncc3)cn2n1)/c1ccc2cc[nH]c2c1` [Compound 15, N-(1H-indol-6-yl-methylidene)-N′-(8-morpholin-4-yl-2-pyridin-4-yl-imidazo[1,2-b]pyridazin-6-yl)-hydrazine] was tested. Which IC50 [2] did it give?
Its IC50 is 54 nM.

`Cc1cccc(/C=N/Nc2cc(N3CCOCC3)c3nc(-c4ccncc4)cn3n2)c1` [Compound 4, N-(3-methyl-benzylidene)-N′-(8-morpholin-4-yl-2-pyridin-4-yl-imidazo[1,2-b]pyridazin-6-yl)-hydrazine] was tested. Which IC50 (TNF-α) did it give?
The IC50 was greater than 10000 nM.

And the IC50 [1]?
Its IC50 is 470 nM.

What about the IC50 [2] of the same compound?
Its IC50 is 3.6 nM.

Which results are given for `Cc1ccccc1/C=N/Nc1cc(N2CCOCC2)c2nc(-c3ccncc3)cn2n1` [Compound 28, N-(2-methyl-benzylidene)-N′-(8-morpholin-4-yl-2-pyridin-4-yl-imidazo[1,2-b]pyridazin-6-yl)-hydrazine]?
IC50 [1]: 290 nM; IC50 [2]: 76 nM

Which results are given for `Cc1ccc(/C=N/Nc2cc(N3CCOCC3)c3nc(-c4ccncc4)cn3n2)cc1` [Compound 25, N-(4-methyl-benzylidene)-N′-(8-morpholin-4-yl-2-pyridin-4-yl-imidazo[1,2-b]pyridazin-6-yl)-hydrazine]?
IC50 [1]: 63 nM; IC50 [2]: 44 nM

For `CC(=O)c1cccc(/C=N/Nc2cc(N3CCOCC3)c3nc(-c4ccncc4)cn3n2)c1` [Compound 17, N-(3-acetyl-benzylidene)-N′-(8-morpholin-4-yl-2-pyridin-4-yl-imidazo[1,2-b]pyridazin-6-yl)-hydrazine], which IC50 [2] is on record?
Its IC50 is 37 nM.

For `Cc1cccc(/C=N/Nc2cc(N3CCOCC3)c3nc(-c4cn[nH]c4)cn3n2)c1` [Compound 29, N-(3-methyl-benzylidene)-N′-{8-morpholin-4-yl-2-(1H-pyrazol-4-yl)-imidazo[1,2-b]pyridazin-6-yl}-hydrazine], which IC50 [1] is on record?
Its IC50 is 1400 nM.

And the IC50 [2]?
The IC50 was 1.1 nM.

With `CC(C)c1cccc(/C=N/Nc2cc(N3CCOCC3)c3nc(-c4ccncc4)cn3n2)c1` [Compound 14, N-(3-isopropyl-benzylidene)-N′-(8-morpholin-4-yl-2-pyridin-4-yl-imidazo[1,2-b]pyridazin-6-yl)-hydrazine] as the compound, how does the IC50 [2] read?
Its IC50 is 130 nM.

`C(=N\Nc1cc(N2CCOCC2)c2nc(-c3ccncc3)cn2n1)/c1ccc2occc2c1` [Compound 20, N-benzofuran-5-ylmethylene-N′-(8-morpholin-4-yl-2-pyridin-4-yl-imidazo[1,2-b]pyridazin-6-yl)-hydrazine] was tested. Which IC50 [1] did it give?
The IC50 was 150 nM.

And the IC50 [2]?
The IC50 was 9.4 nM.

With `CCc1cccc(/C=N/Nc2cc(N3CCOCC3)c3nc(-c4ccncc4)cn3n2)c1` [Compound 10, N-(3-ethyl-benzylidene)-N′-(8-morpholin-4-yl-2-pyridin-4-yl-imidazo[1,2-b]pyridazin-6-yl)-hydrazine] as the compound, how does the IC50 [1] read?
The IC50 was 180 nM.

And the IC50 [2]?
Its IC50 is 8.1 nM.

With `CN(C)c1cccc(/C=N/Nc2cc(N3CCOCC3)c3nc(-c4ccncc4)cn3n2)c1` [Compound 23, N-(3-dimethylamino-benzylidene)-N-(8-morpholin-4-yl-2-pyridin-4-yl-imidazo[1,2-b]pyridazin-6-yl)-hydrazine] as the compound, how does the IC50 [1] read?
Its IC50 is 550 nM.

And the IC50 [2]?
The IC50 was 63 nM.

How did the IC50 [2] turn out when `C=Cc1cccc(/C=N/Nc2cc(N3CCOCC3)c3nc(-c4ccncc4)cn3n2)c1` [Compound 19, N-(3-vinyl-benzylidene)-N-(8-morpholin-4-yl-2-pyridin-4-yl-imidazo[1,2-b]pyridazin-6-yl)-hydrazine] was run?
The IC50 was 6.4 nM.

`Cc1cccc(/C=N/Nc2cc(N3CCOCC3)c3nc(-c4cnn(-c5ccccc5)c4C)cn3n2)c1` [Compound 5, N-(3-methyl-benzylidene)-N′-[2-(5-methyl-1-phenyl-1H-pyrazol-4-yl)-8-morpholin-4-yl-imidazo[1,2-b]pyridazin-6-yl]-hydrazine] was tested. Which IC50 [2] did it give?
The IC50 was 33 nM.

How did the IC50 [2] turn out when `C(=N\Nc1cc(N2CCOCC2)c2nc(-c3ccccc3)cn2n1)/c1c[nH]c2ccccc12` [Compound 2, N-(1H-indol-3-yl-methylidene)-N′-(8-morpholin-4-yl-2-phenyl-imidazo[1,2-b]pyridazin-6-yl)-hydrazine] was run?
The IC50 was 36 nM.

With `C(=N\Nc1cc(N2CCOCC2)c2nc(-c3ccncc3)cn2n1)/c1c[nH]c2ccccc12` [Compound 6, N-(1H-indol-3-yl-methylidene)-N′-(8-morpholin-4-yl-2-pyridin-4-yl-imidazo[1,2-b]pyridazin-6-yl)-hydrazine] as the compound, how does the IC50 [2] read?
The IC50 was 92 nM.

How did the IC50 [1] turn out when `FCc1ccc(/C=N/Nc2cc(N3CCOCC3)c3nc(-c4ccncc4)cn3n2)cc1` [Compound 26, N-(4-fluoromethyl-benzylidene)-N′-(8-morpholin-4-yl-2-pyridin-4-yl-imidazo[1,2-b]pyridazin-6-yl)-hydrazine] was run?
The IC50 was 270 nM.

What about the IC50 [2] of the same compound?
Its IC50 is 46 nM.

With `CCCCC(C)c1cccc(/C=N/Nc2cc(N3CCOCC3)c3nc(-c4ccncc4)cn3n2)c1` (stereo not drawn) [Compound 18, N-[3-(1-methyl-pentyl)-benzylidene]-N′-(8-morpholin-4-yl-2-pyridin-4-yl-imidazo[1,2-b]pyridazin-6-yl)-hydrazine] as the compound, how does the IC50 [2] read?
Its IC50 is 1100 nM.

Which IC50 (TNF-α) does the source give for `Cc1cccc(/C=N/Nc2cc(N3CCOCC3)c3nc(-c4cccnc4)cn3n2)c1` [Compound 3, N-(3-methyl-benzylidene)-N′-(8-morpholin-4-yl-2-pyridin-3-yl-imidazo[1,2-b]pyridazin-6-yl)-hydrazine] here?
Its IC50 is greater than 10000 nM.

What about the IC50 [1] of the same compound?
Its IC50 is 3000 nM.

What about the IC50 [2] of the same compound?
The IC50 was 8.7 nM.

For `Cc1cccc(/C=N/Nc2cc(N3CCOCC3)c3nc(-c4ccccc4)cn3n2)c1` [Compound 1, N-(3-methyl-benzylidene)-N′-(8-morpholin-4-yl-2-phenyl-imidazo[1,2-b]pyridazin-6-yl)-hydrazine], which IC50 [2] is on record?
The IC50 was 32 nM.

`Cc1cccc(/C=N/Nc2cc(N3CCOCC3)c3nc(-c4ccc(N5CCCC5)cc4)cn3n2)c1` [Compound 7, N-(3-methyl-benzylidene)-N′-[8-morpholin-4-yl-2-(4-pyrrolidin-1-yl-phenyl)-imidazo[1,2-b]pyridazin-6-yl]-hydrazine] was tested. Which IC50 [2] did it give?
Its IC50 is 40 nM.

Which IC50 [1] does the source give for `FC(F)c1cccc(/C=N/Nc2cc(N3CCOCC3)c3nc(-c4ccncc4)cn3n2)c1` [Compound 22, N-(3-difluoromethyl-benzylidene)-N-(8-morpholin-4-yl-2-pyridin-4-yl-imidazo[1,2-b]pyridazin-6-yl)-hydrazine] here?
Its IC50 is 110 nM.

And the IC50 [2]?
Its IC50 is 40 nM.

Which IC50 [2] does the source give for `Cc1ccc(/C=N/Nc2cc(N3CCOCC3)c3nc(-c4ccncc4)cn3n2)[nH]1` [Compound 24, N-(5-methyl-1H-pyrrol-2-ylmethylene)-N-(8-morpholin-4-yl-2-pyridin-4-yl-imidazo[1,2-b]pyridazin-6-yl)-hydrazine] here?
Its IC50 is 370 nM.

With `Cc1ccc(/C=N/Nc2cc(N3CCOCC3)c3nc(-c4ccncc4)cn3n2)o1` [Compound 13, N-(5-methyl-furan-2-yl-methylidene)-N′-(8-morpholin-4-yl-2-pyridin-4-yl-imidazo[1,2-b]pyridazin-6-yl)-hydrazine] as the compound, how does the IC50 [2] read?
Its IC50 is 190 nM.

For `C=C(C)c1cccc(/C=N/Nc2cc(N3CCOCC3)c3nc(-c4ccncc4)cn3n2)c1` [Compound 16, N-(3-isopropenyl-benzylidene)-N′-(8-morpholin-4-yl-2-pyridin-4-yl-imidazo[1,2-b]pyridazin-6-yl)-hydrazine], which IC50 [2] is on record?
Its IC50 is 77 nM.
